Ames test and Ames mutagenicity test data for ten molecules are collected here from patent US4987258A, “4,4'-diaminodiphenyl compounds, process for their preparation and their use” (Hoechst Aktiengesellschaft, priority 1987, dated 1991).

The test system of the first series is Salmonella typhimurium (strains TA 98, TA 100, TA 1535, TA 1537, TA 1538). Kind of series: Ames mutagenicity test with Salmonella typhimurium in the absence and presence of S-9-mix. It is filed as cell-based.
Conditions: not given
On the procedure:
The examples below will describe the invention in more detail. The mutagenicity test was carried out, following Ames, with Salmonella typhimurium (strains TA 98, TA 100, TA 1535, TA 1537, TA 1538) in the absence and presence of S-9-mix (B. N. Ames et al., Mut. Res. Vol. 31, p. 347-364 (1975)).
(In general: In the Ames test, an excess of revertant colonies over the control signals mutagenicity.)
Turning to `CCC(C)c1cc(-c2ccc(N)c(C(C)CC)c2)ccc1N` (stereo not shown), the Ames test entry was “negative”.
Consider `CCCc1cc(-c2ccc(N)c(CCC)c2)ccc1N` [Example 4], for which the Ames test result is recorded as “negative”.
Take `CCCCc1cc(-c2ccc(N)c(CCCC)c2)ccc1N` [Example 5]: the Ames test entry is listed as “negative”.
Turning to `CC(C)Cc1cc(-c2ccc(N)c(CC(C)C)c2)ccc1N` [Example 6], the Ames test entry was “negative”.
Regarding `CCCOc1cc(-c2ccc(N)c(OCCC)c2)ccc1N` [Example 8], the Ames test result is “negative”.
For the molecule `CC(C)Oc1cc(-c2ccc(N)c(OC(C)C)c2)ccc1N` [Example 9], the Ames test result is given as “negative”.
Same read-out and setting: the result for `CCC(C)Oc1cc(-c2ccc(N)c(OC(C)CC)c2)ccc1N` (stereo not shown) [Example 10] reads “negative”.

Still in this series, the particulars now being: Examples 1-3.
For `CC(C)c1cc(-c2ccc(N)c(C(C)C)c2)ccc1N` [Example 1, 3,3-diisopropylbenzidine dichlorohydrate], the Ames mutagenicity test result is given as “negative”.
Regarding `CC(C)COc1cc(-c2ccc(N)c(OCC(C)C)c2)ccc1N` [Example 2, 3,3'-diisobutoxybenzidine], the Ames mutagenicity test entry was “negative”.
For the molecule `COCCOc1cc(-c2ccc(N)c(OCCOC)c2)ccc1N` [Example 3, 3,3'-di(2-methoxyethoxy)-benzidine], the Ames mutagenicity test result is “negative”.
